System: rat tail artery helical strip
Conditions: strips contracted with arginine vasopressin, dose of 100 mg/ml
Description: Male and female Sprague-Dawley rats were anesthetized with pentobarbital (50 mg/kg) before removal of the tail artery. Upon isolation the artery was placed in ice cold Krebs-Hensleit solution (KHS) which was oxygenated with 95% O2, 5% CO2. The vessels were cut helically and strips of approximately 1.5 cm were secured in a Sawyer-Bartleston chamber containing KHS. The development of force of the helical strips was measured with a Grass FT.03 force displacement transducer and recorded on a Grass Model 79D polygraph. Isolated tail artery helical strips were equilibrated for one hour prior to addition of any peptide. In all cases, the strips were first contracted by adding arginine vasopressin (AVP), to the bath. The peptide being studied was then added to the bath and the degree of relaxation was determined.

## N=C(N)NCCC[C@@H](N)C(=O)O [D Arg, D-arginine]
  Tension change: 0 gm

— patent US4687840A, “Hypotensive active peptides” (Texas Tech University Health Sciences Center, priority 1986, dated 1987)
